Experimental data reported in patent publication US10000510B2, “Salt forms of ceftolozane” (Merck Sharp & Dohme Corp., priority 2014, dated 2018).
Structures can show the parent of a compound that is named as a salt.

Key:
Assay type in all cases: physicochemical
[1] = Stability of ceftolozane salts at 40° C. and 75% RH for one week, loss of purity by HPLC; details: 40° C. and 75% relative humidity, one week (7 days), initial purity minus purity after storage
Protocol: (§1) The ceftolozane salt forms provided herein can also be evaluated for stability upon exposure to high temperatures and humidity. The stability evaluation of the ceftolozane salts can be carried out by HPLC analysis using, for example, the method described in Example 1. For examples, the ceftolozane salt forms can be subjected to 40° C. and 75% relative humidity (RH) for one week (7 days) or, 25° C. and 60% relative humidity (RH) for two weeks or for four weeks. The purity and loss of purity (LOP) of these samples can be evaluated by measuring the amount of ceftolozane by HPLC (e.g., Example 1). The results of the stability analysis are summarized in the following Table B: Unless otherwise indicated herein, the HPLC method of Example 1 was used to measure ceftolozane purity disclosed herein. The loss of purity (LOP) was calculated as the difference between the initial ceftolozane purity and the ceftolozane purity after being subject to the conditions of the stability test (e.g., at 40° C. and 75% relative humidity (RH) for one week), wherein the purity was measured using the HPLC method described below. Standards and samples are prepared in 50 mM sodium perchlorate monohydrate, pH 4.00. A quantitation standard (Standard Solution 1) and check standard (Standard Solution 2) are both prepared at the target working concentration of 0.3 mg/mL taking into consideration the potency, as-is of the standard. The samples are prepared at the target active concentration of 0.3 mg/mL by preparing a sample at 0.04% (w/v). [table]

[2] = Stability of ceftolozane salts at 25° C. and 60% RH for two or four weeks, loss of purity by HPLC; details: 25° C. and 60% relative humidity; for 4 w, Loss of Purity: four weeks; for 2 w, Loss of Purity: two weeks (14 days)
Protocol: as §1

[3] = Dry stability of lyophilized ceftolozane zwitterion/stabilizing agent compositions at 40° C./75% RH, purity by HPLC; details: lyophilized solid
Protocol: The following HPLC method was used to measure ceftolozane purity disclosed in Examples 13 through 15.
HPLC conditions for Ceftolozane Purity:
Mobile Phase A: 50 mM Sodium Perchlorate, pH 2.5
Mobile Phase B: 20% ACN in 63 mM Sodium Perchlorate, pH 2.5
Column: Phenomenex Develosil ODS-UG-5, 5 μm, 250 mm×4.6 mm
Sample Solution: 1 mg/mL in water
Active ceftolozane zwitterion (“Cef”; 1620 mg; 2.1 mmol) and sodium chloride (122 mg; 2.1 mmol) were dissolved in 8.25 mL of sterile water to obtain pale yellowish solution. Aliquoted the complex solution to 5-mL freeze drying vials (0.45 mL per vial, 18 vials in total) which were positioned in a lyophilization tray. The key lyophilization conditions included freezing at −50° C. to −55° C. for 2 hours, primary drying at −30° C., 50 millitorrs for 40 hours, secondary drying at 20° C., 50 millitorrs for 7 hours, and storing at 5° C., 600 millitorrs until harvesting. The sublimate was condensed at −60° C. The freeze drying vials were harvested, inserted with proper stoppers, sealed with crimp seals, and labeled as Cef:NaCl(1:1) for dry stability evaluation at 40° C./75% RH. The vials were stored at 40° C. and 75% relative humidity (RH).
The following compositions were prepared analogously: ceftolozane zwitterion and sodium chloride (1:0.5) complex, ceftolozane zwitterion and sodium chloride (1:2) complex, ceftolozane zwitterion and sodium sulfate (1:1) complex, ceftolozane zwitterion and sodium sulfate (1:0.5) complex, ceftolozane zwitterion and sodium sulfate (1:2) complex, ceftolozane zwitterion and calcium chloride (1:1) complex, ceftolozane zwitterion and calcium chloride (1:0.5) complex, ceftolozane zwitterion and calcium chloride (1:2) complex, ceftolozane zwitterion and magnesium chloride (1:1) complex, ceftolozane zwitterion and magnesium chloride (1:0.5) complex, ceftolozane zwitterion and magnesium chloride (1:2) complex.
These compositions and ceftolozane zwitterion alone were evaluated for stability at 40° C./75% RH by HPLC. The dry samples were dissolved in water for loading onto the column.

[4] = listed as phosphate salt of ceftolozane

| Compound | 1 w, Loss of Purity [1] | 4 w, Loss of Purity [2] | 2 w, Loss of Purity [2] | also measured |
| --- | --- | --- | --- | --- |
| ceftolozane edisylate | 9.6% | 1.7% | 1.5% | 4 w, Loss of Purity ([2]; listed as edisylate salt of ceftolozane): 1.7% |
| Cn1c(N)c(NC(=O)NCCN)c[n+]1CC1=C(C(=O)O)N2C(=O)[C@@H](NC(=O)/C(=N\OC(C)(C)C(=O)O)c3nsc(N)n3)[C@H]2SC1 [Ceftolozane sulfate, 5-amino-4-{[(2-aminoethyl)carbamoyl]amino}-2-{[(6R,7R)-7-({(2Z)-2-(5-amino-1,2,4-thiadiazol-3-yl)-2-[(1-carboxy-1-methylethoxy)imino]acetyl}amino)-2-carboxy-8-oxo-5-thia-1-azabicyclo[4.2.0]oct-2-en-3-yl]methyl}-1-methyl-1H-pyrazolium monosulfate, reference compound] | 22.4% | 5.1% | 1.2% | – |
| ceftolozane bromide | 13.3% | 2.3% | 0.4% | 2 w, Loss of Purity ([2]; listed as bromide salt of ceftolozane): 0.4% |
| ceftolozane phosphate | 30.9% | 13.7% | 4.5% | 1 w, Loss of Purity [1, 4]: 30.9%; 4 w, Loss of Purity [2, 4]: 13.7%; 2 w, Loss of Purity [2, 4]: 4.5% |
| Cn1c(N)c(NC(=O)NCCN)c[n+]1CC1=C(C(=O)[O-])N2C(=O)[C@@H](NC(=O)/C(=N\OC(C)(C)C(=O)O)c3nsc(N)n3)[C@H]2SC1 [Ceftolozane zwitterion, (6R,7R)-3-[(5-amino-4-{[(2-aminoethyl)carbamoyl]amino}-1-methyl-1H-pyrazol-2-ium-2-yl)methyl]-7-({(2Z)-2-(5-amino-1,2,4-thiadiazol-3-yl)-2-[(1-carboxy-1-methylethoxy)imino]acetyl}amino)-8-oxo-5-thia-1-azabicyclo[4.2.0]oct-2-ene-2-carboxylate] | 14.4% | 7.4% | 3.6% | % purity of Ceftolozane, 3 day ([3]; 3 day at 40° C./75% RH): 88.0%; % purity of Ceftolozane, 7 day ([3]; 7 day at 40° C./75% RH): 84.5%; % purity of Ceftolozane, 14 day ([3]; 14 day at 40° C./75% RH): 77.9%; % purity of Ceftolozane, T0 ([3]; T0 (start of storage at 40° C./75% RH)): 92.6% |
| Cn1c(N)c(NC(=O)NCCN)c[n+]1CC1=C(C(=O)O)N2C(=O)[C@@H](NC(=O)/C(=N\OC(C)(C)C(=O)O)c3nsc(N)n3)[C@H]2SC1 [Ceftolozane chloride, ceftolozane chloride] | 7.5% | 2.9% | 1.0% | 1 w, Loss of Purity ([1]; listed as chloride salt of ceftolozane): 7.5% |
| ceftolozane ketoglutarate | 22.6% | 5.8% | 3.5% | – |
| ceftolozane mesylate | 8.3% | 4.3% | 1.3% | – |
| ceftolozane maleate | 9.3% | 5.2% | 3.6% | – |
